Results published in US20080140138A1, “Inhibition of inflammatory cytokine production by stimulation of brain muscarinic receptors” (priority 2002, published 2008).
Counter-ions that a name gives are not always drawn.

Experiments:
LPS-induced serum TNF = LPS-induced serum TNF after i.c.v. drug injection, L929 bioactivity assay; format: in vivo, Lewis rats; details: i.c.v.; for effect in reducing LPS-induced serum TNF levels: nicotine 10 μg/rat, prozak 0.01 mg/10 g, LPS 15 mg/kg i.v. 1 h later
Procedure: Method of stereotactic intracerebroventricular injections. […] Lewis rats were anaesthetized with urethane (1 g/kg, i.p.) and xylazine (15 mg/rat, i.m. (intramuscular)). Rats were then placed in a stereotactic head frame (Stoelting, Wood Dale, Ill., USA). The incisor bar was adjusted until the plane defined by the lambda and bregma was parallel to the base plate. For i.c.v. injections the needle of a Hamilton syringe (25 μl) was positioned stereotactically above the lateral ventricle (0.2 mm and 1.5 mm posterior to bregma, 3.2 mm below the dura.) Solutions of the drugs tested were prepared in sterile endotoxin-free water, at the specified concentrations, and a 10-μl injection/rat was administered over 2 min, 1 h prior to either carrageenan injection, or to LPS.
In one set of experiments, rats were injected by i.c.v. means with either saline (n=1), CNI-1493 (5 μg/rat, n=3), CNI-1493 plus atropine (5 μg/rat each), or atropine (5 μg/rat). LPS (15 mg/kg, i.v.) was given 1 h later. Blood was collected 2 h post LPS administration. Serum TNF was determined by the L929 assay.

[1] = tested on: carrageenan-induced hindpaw edema; assay: Carrageenan-induced hindpaw edema; format: in vivo, Lewis rats
Procedure: Method of determining CNI-1493 receptor binding. CNI-1493 was tested at a single concentration (10 μM) in a panel of receptor binding assays by NovaScreen Biosciences Corporation (Hanover, Md.). Values were expressed as the percent inhibition of specific binding, and represented the average of duplicate tubes. Method of stereotactic intracerebroventricular injections. A rat model of intracerebroventricular (i.c.v.) injections was established in order to be able to directly deliver pharmacological agents into the brain of rats. This was necessary in order to separate drug effects on peripheral inflammation that occurred through central versus peripheral mechanisms. Lewis rats were anaesthetized with urethane (1 g/kg, i.p.) and xylazine (15 mg/rat, i.m. (intramuscular)). Rats were then placed in a stereotactic head frame (Stoelting, Wood Dale, Ill., USA). The incisor bar was adjusted until the plane defined by the lambda and bregma was parallel to the base plate. For i.c.v. injections the needle of a Hamilton syringe (25 μl) was positioned stereotactically above the lateral ventricle (0.2 mm and 1.5 mm posterior to bregma, 3.2 mm below the dura.) Solutions of the drugs tested were prepared in sterile endotoxin-free water, at the specified concentrations, and a 10-μl injection/rat was administered over 2 min, 1 h prior to either carrageenan injection, or to LPS.
The tested drugs, in either the carrageenan and/or LPS experiments, were: saline control; fluoxetine hydrochloride, (also known as Prozak) (0.01 mg/100 g); muscarine (50 μg/rat, 5 μg/rat, 0.5 μg/rat, 0.05 μg/rat, 0.005 μg/rat); 4-(N-[3-chlorophenyl]carbamoyloxy)-2-butynyltrimethylammonium chloride (also known as McN-A-343) (5 μg/rat); Muscarinic Toxin-3, (also known as MT-3) from Dendroaspis angusticeps snake venom (0.37 μg/rat); nicotine (10 μg/rat); CNI-1493 (1 μg/kg, 50 μg/rat); atropine (1 μg/kg, 5 μg/rat); CNI-1493 plus atropine (1 μg/kg of each of the drugs; 50 μg/rat, 5 μg/rat respectively); naloxone hydrochloride (2 μg/rat), CNI-1493 plus naloxone (50 μg/rat+5 μg/rat respectively); and morphine (20 μg/rat).
Method of carrageenan-induced hindpaw edema. Paw edema was induced in anaesthetized rats by injection of 1% solution of 1-carrageenan (100 μl) into the plantar surface of the left hindpaw. The right hindpaw was injected with the same volume of saline alone (as control). The thickness of the carrageenan-treated and saline-treated hindpaw was measured using a caliper at 3 h post carrageenan, and the difference between paw thickness calculated as an index of inflammation (paw swelling). Method of LPS injections and TNF determination. LPS (15 mg/kg, i.v.) was injected in the tail vein 1 h after drug injection. Blood was obtained 2 h post LPS injection by paraorbital bleeding. Serum TNF concentrations were determined by an L929 bioactivity assay. Method of assessing TNF by the L929 bioactivity assay. L929 cells were suspended in Dulbecco's minimal Eagle's medium (DMEM; GibcoBRL) supplemented with fetal bovine serum (10%; Hyclone) and penicillin/streptomycin (0.5%; Sigma Chemical Co.), and plated at 2×10^4 cells per well in 96-well flat-bottomed microtiter plates. After 24 h, media were respirated and replaced with medium containing cycloheximide (10 μg/ml; Sigma Chemical Co.) and the samples to be assayed/TNF standards. Plates were incubated overnight, at which time cell viability as a function of TNF concentration was assessed by the MTT assay. Absorbance values were converted to units per milliliter by comparison with a standard curve for rat TNF.
In a third set of experiments, rats were injected by i.c.v. means with either saline (n=4), CNI-1493 (5 μg/rat, n=3), CNI-1493 plus atropine (5 μg/rat each), or atropine (5 μg/rat). Carrageenan was given to the animals 1 h later, and paw edema was determined 3 h post carrageenan. […]

LPS-induced TNF = LPS-induced TNF in serum and tissues after muscarine, ELISA; format: in vivo, rats; details: for LPS-induced heart TNF levels: heart tissue
Procedure: Methods of stereotactic intracerebroventricular injection of muscarine into rats and LPS injections were as described in Example 1. TNF levels in serum and tissues were determined using an enzyme-inked immunosorbent assay (ELISA) according to the manufacturere's instructions (R & D Systems (Minneapolis, Minn.)).
Rats were injected by i.c.v. means with either saline (control) or muscarine (0.005 μg/kg body weight, 0.5 μg/kg body weight, 5.0 μg/kg body weight, or 50 μg/kg body weight). LPS was administered 1 hour later. Two hours after LPS administration the rats were sacrificed and blood, heart tissue, and spleen tissue were isolated from the rats. As shown in FIGS. 9A-9C, i.c.v. administration of muscarine inhibited LPS-induced serum, heart, and spleen (peripheral) TNF levels.
Methods of LPS injections were as described in Example 1. Determination of serum and tissue TNF levels were as described in Example 4. Muscarine (or control saline) was intravenously injected into rats at concentrations of 0.05 μg/kg body weight, 0.5 μg/kg body weight, or 5.0 μg/kg body weight.
Rats were injected by i.v. means with either saline (control) or muscarine (0.05 μg/kg body weight, 0.5 μg/kg body weight, or 5.0 μg/kg body weight). LPS was administered 1 hour later. Two hours after LPS administration the rats were sacrificed and blood, liver tissue, heart tissue, and spleen tissue were isolated from the rats and assayed for TNF concentrations. As shown in FIGS. 10A-10D, intravenous administration of muscarine had no effect on LPS-induced serum, liver, heart, and spleen TNF levels.

[2] = tested on: carrageenan-induced paw edema; details: low doses, direct administration to the brain; cited from earlier work
[3] = muscarine i.c.v. 0.005-50 μg/kg body weight
[4] = muscarine i.v. 0.05, 0.5, 5.0 μg/kg body weight

## CN1CCCC1c1cccnc1 (stereo not shown) [nicotine]
LPS-induced serum TNF
  effect in reducing LPS-induced serum TNF levels: Neither nicotine nor prozak had any effect

## CNCCC(Oc1ccc(C(F)(F)F)cc1)c1ccccc1 (stereo not shown) [prozak, fluoxetine hydrochloride]
LPS-induced serum TNF
  effect in reducing LPS-induced serum TNF levels: Neither nicotine nor prozak had any effect

## C[N+](C)(C)CC#CCOC(=O)Nc1cccc(Cl)c1.[Cl-] [McN-A-343, 4-(N-[3-chlorophenyl]carbamoyloxy)-2-butynyltrimethylammonium chloride]
[1]; 5 μg/rat i.c.v. versus 5 mg/kg i.p.
  inhibition of paw edema, i.c.v. compared with i.p. administration: comparable effect on inhibition of carrageenan-induced paw edema as a higher dose administered intraperitoneally
[1]; i.c.v., McN-A-343 5 μg/rat, MT-3 0.37 μg/rat
  inhibition of carrageenan-induced paw edema: significantly inhibits

## CN1[C@@H]2CC[C@H]1C[C@@H](OC(=O)C(CO)c1ccccc1)C2 (stereo partly shown) [atropine]
LPS-induced serum TNF; CNI-1493 plus atropine, 5 μg/rat each
  effect of atropine on CNI-1493 inhibition of LPS-induced serum TNF: reversed the inhibitory effect of CNI-1493 to the TNF level of atropine alone
[1]; CNI-1493 plus atropine, 5 μg/rat each, i.c.v.
  effect of atropine on CNI-1493 inhibition of paw edema: reverses the effect

## C[C@@H]1O[C@H](C[N+](C)(C)C)C[C@H]1O [muscarine]
LPS-induced TNF; [3]
  LPS-induced heart TNF levels: inhibited
  LPS-induced serum TNF levels: inhibited
  LPS-induced spleen TNF levels: inhibited
LPS-induced TNF; [4]
  LPS-induced heart TNF levels: no effect
  LPS-induced serum TNF levels: no effect
  LPS-induced spleen TNF levels: no effect
LPS-induced TNF; muscarine i.v. 0.05, 0.5, 5.0 μg/kg body weight, liver
  LPS-induced liver TNF levels: no effect
[1]; muscarine 0.5 μg/rat i.c.v., bilateral cervical vagotomy, P=0.015 SAL v. MUS, P=0.039 MUS v. MUS-VGX
  effect of vagotomy on muscarine inhibition of paw edema: Vagotomy clearly abrogates the inhibitory effects
[1]; muscarine i.c.v. 5, 0.5, 0.05, 0.005 μg/rat
  inhibition of carrageenan-induced paw edema: significantly inhibits carrageenan-induced paw edema in a dose-dependent manner

## C[N+](C)(C)CCOC(N)=O [carbachol]
[2]
  effect on carrageenan-induced paw edema: attenuation of paw edema
